Source: US20210220314A1, “AMINO ACID COMPOSITION FOR ENABLING FULFILMENT OF THE AMINO ACID REQUIREMENTS OF A MONOGASTRIC ANIMAL SUCH AS A HUMAN OR A PIG” (VETAGRO INTERNATIONAL S.R.L., priority 2018, published 2021)

Conditions: pig, in vivo, po

SMILES | presence of marker in the content of different sections of the gastrointestinal tract
COc1cc(C=O)ccc1O [vanillin] | present in the different intestinal sections only when administered in encapsulated form in the lipid matrix
C/C=C/C=C/C(=O)O [sorbic acid] | present in the different intestinal sections only when administered in encapsulated form in the lipid matrix
